Like-named read-outs stand apart in the source and are kept apart here.
Legend:
[1] = biological target: T1, human serotonin transporter expressed in CHO cells (Homo sapiens, UniProt P31645); experiment: Inhibitory activity on serotonin transporter binding (3H-imipramine)
T1 construct: expressed in transfected cells; host or cells: CHO cells
Protocol: As used herein, the term “SSRI antidepressant” is intended to mean an agent that selectively binds to the serotonin transporter and inhibits the reuptake of serotonin through this serotonin transporter. Inhibitory activity on serotonin transporter binding may be measured, for example, as described in Eur. J. Pharmacol., 368: 277-283, 1999. Namely, it is measured by determining whether ^3H-labeled imipramine binds to the human serotonin transporter expressed in CHO cells.
(§1) Various cyclic dipeptides were measured for their inhibitory activity on serotonin transporter binding and norepinephrine transporter binding, as described in the prior documents mentioned above (Eur J Pharmacol, 368, 277-283, 1999 for inhibitory activity on serotonin transporter binding; and Nature, 350, 350-354, 1991 for inhibitory activity on noradrenaline transporter binding). Compound C was synthesized by Peptide Institute, Inc., Japan, and the other cyclic dipeptides were purchased from Bachem AG (Bubendorf, Switzerland). The results were expressed as IC50 values, i.e., the concentrations of the various cyclic peptides required for 50% inhibition of binding to each transporter (Table 1).

C57BL/6 mice = experiment: Morris water maze (MWM) after open space swimming (OSS), learning motivation; assay type: in vivo; settings: for improving effect on learning motivation over control group (OSS-Vehicle): 20 mg/kg, MWM, FIG. 2
Protocol: On the other hand, the Morris water maze test has been reported as a method for measuring spatial memory and learning (Learn. Motiv. 12, 239-260 (1981)). In this test, the time required to reach an escape platform (escape latency) is used as a parameter for evaluation, because mice will remember their surrounding scenery and swim in a pool filled with water to try to find and reach the escape platform, which is a goal, with their memory as a guide. Since mice to be used in this test are treated to reduce their motivation by being allowed to swim in a pool having no escape platform before the Morris water maze test, a reduction in the time required to reach the escape platform can be regarded as an improvement in learning motivation.
Compound A was evaluated for its antidepressive effect and enhancing effect on learning motivation by the method known in the art, i.e., Morris Water Maze (MWM).
First, water which had been colored black with Indian ink was filled into a cylindrical tank of 90 cm diameter and 35 cm height to give a water depth of 20 cm, and the water temperature was set to 22±1° C. To this tank, C57BL/6 mice (male, 9 weeks of age) were each transferred and allowed to experience open space swimming (OSS). Upon OSS, mice will cause changes in their behavior and enter a state corresponding to depression. After repeating OSS for 5 days, the mice were divided into 7 groups.
Next, in the above cylindrical tank of 90 cm diameter and 35 cm height, an escape platform of 10 cm diameter was placed at a water depth of 0.5 cm. The above 7 groups of mice were each orally administered with compound A (Bachem AG (Bubendorf, Switzerland)) or with a comparative drug, fluvoxamine maleate, in the form of a suspension in physiological saline. After 60 minutes, each mouse was transferred to the tank provided with the escape platform, and measured for the time required to find out the invisible escape platform placed below the water surface (i.e., escape latency) to evaluate the spatial memory and learning ability of each mouse (MWM). As control mice, animals experiencing no OSS were administered with physiological saline and subjected to MWM. MWM was repeated five times a day for 10 days.
In the same manner as shown in Example 2, mice were administered with 20 mg/kg compound A and then subjected to the MWM test. As a control, a linear dipeptide (Phe-Phe) was administered at 20 mg/kg, followed by the MWM test.
In the same manner as shown in Example 2, another group receiving 0.002 mg/kg administration was prepared and subjected to the same MWM test.

[2] = biological target: T2, human norepinephrine transporter expressed in CHO cells (Homo sapiens, UniProt P23975); experiment: Inhibitory activity on norepinephrine transporter binding (3H-nisoxetine); settings: for IC50: concentration required for 50% inhibition of binding
T2 construct: expressed in transfected cells; host or cells: CHO cells
Protocol: The term “SNRI antidepressant” is intended to mean an agent that binds to both serotonin and norepinephrine transporters, and inhibits the reuptake of serotonin and norepinephrine. Inhibitory activity on norepinephrine transporter binding may be measured, for example, as described in Nature, 350: 350-354, 1991. Namely, it is measured by determining whether ^3H-labeled nisoxetine binds to the human norepinephrine transporter expressed in CHO cells.
as §1

rats = experiment: 28-day repeated dose toxicity study; assay type: in vivo
[3] = Genetic toxicity studies (Ames test, chromosomal aberration test, mouse micronucleus test)
mice = experiment: Single-dose (acute) toxicity study; assay type: in vivo; settings: administered at 2 g/kg
[4] = concentration required for 50% inhibition of binding, read-out: IC50, serotonin transporter (converted)

T1 sequence (P31645 whole entry): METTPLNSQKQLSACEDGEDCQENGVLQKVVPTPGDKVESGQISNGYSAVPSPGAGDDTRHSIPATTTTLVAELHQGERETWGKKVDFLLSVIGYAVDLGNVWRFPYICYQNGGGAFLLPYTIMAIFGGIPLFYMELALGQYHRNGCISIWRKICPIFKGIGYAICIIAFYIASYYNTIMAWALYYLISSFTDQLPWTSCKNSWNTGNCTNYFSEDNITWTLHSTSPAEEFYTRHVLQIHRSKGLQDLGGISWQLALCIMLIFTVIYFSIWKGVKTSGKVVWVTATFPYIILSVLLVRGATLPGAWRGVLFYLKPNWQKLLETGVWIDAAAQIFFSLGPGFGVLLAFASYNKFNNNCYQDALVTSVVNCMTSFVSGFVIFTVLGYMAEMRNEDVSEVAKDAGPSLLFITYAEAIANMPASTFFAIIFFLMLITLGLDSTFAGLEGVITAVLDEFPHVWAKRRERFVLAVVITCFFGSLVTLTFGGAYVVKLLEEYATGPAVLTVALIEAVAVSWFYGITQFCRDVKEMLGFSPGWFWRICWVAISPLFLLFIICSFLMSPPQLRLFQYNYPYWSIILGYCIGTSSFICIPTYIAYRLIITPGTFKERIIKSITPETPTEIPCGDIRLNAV
T2 sequence (P23975 whole entry): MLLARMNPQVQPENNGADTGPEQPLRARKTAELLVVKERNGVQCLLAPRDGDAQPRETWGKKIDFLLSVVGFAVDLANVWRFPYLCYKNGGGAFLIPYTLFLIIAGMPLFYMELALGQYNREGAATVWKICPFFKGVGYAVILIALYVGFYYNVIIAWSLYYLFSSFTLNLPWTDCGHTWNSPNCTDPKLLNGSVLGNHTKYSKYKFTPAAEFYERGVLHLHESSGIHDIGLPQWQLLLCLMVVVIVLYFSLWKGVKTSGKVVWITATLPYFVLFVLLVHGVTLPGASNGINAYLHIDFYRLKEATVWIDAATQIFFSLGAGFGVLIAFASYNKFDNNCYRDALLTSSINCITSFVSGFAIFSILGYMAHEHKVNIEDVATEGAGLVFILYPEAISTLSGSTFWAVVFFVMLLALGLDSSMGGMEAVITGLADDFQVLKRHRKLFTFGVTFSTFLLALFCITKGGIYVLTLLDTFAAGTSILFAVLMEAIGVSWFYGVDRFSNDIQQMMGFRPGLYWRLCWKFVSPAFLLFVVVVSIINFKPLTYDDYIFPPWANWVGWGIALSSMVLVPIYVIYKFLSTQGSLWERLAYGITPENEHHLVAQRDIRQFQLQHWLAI

Row | Compound | inhibitory activity on serotonin transporter binding (in words) [1] | IC50 [1, 4] | inhibitory activity on norepinephrine transporter binding (in words) [2] | IC50 [2] | other results
1 | O=C1N[C@@H](Cc2c[nH]c3ccccc23)C(=O)N2CCC[C@@H]12 [Compound C, pyrrolo[1,2-a]pyrazine-1,4-dione,hexahydro-3-(1H-indol-3-ylmethyl)-,(3S,8aS)] | have inhibitory activity on serotonin transporter binding | 3740 µM |  |  | 
2 | Phe-Phe [reference compound] |  |  |  |  | improving effect on learning motivation over control group (OSS-Vehicle) (C57BL/6 mice): not confirmed to have a significant effect
3 | O=C1N[C@@H](Cc2c[nH]c3ccccc23)C(=O)N[C@H]1Cc1c[nH]c2ccccc12 [Compound D, 2,5-piperazinedione,3,6-bis(1H-indol-3-ylmethyl)-,(3S,6S)] |  |  | have inhibitory activity on norepinephrine transporter binding | 148 µM | 
4 | CC(C)C[C@@H]1NC(=O)[C@@H]2CCCN2C1=O [Compound E, pyrrolo[1,2-a]pyrazine-1,4-dione,hexahydro-3-(2-methylpropyl)-,(3S,8aS)] |  |  | have inhibitory activity on norepinephrine transporter binding | 2000 µM | 
5 | O=C1N[C@@H](Cc2ccccc2)C(=O)N[C@H]1Cc1ccccc1 [Compound A, 2,5-piperazinedione,3,6-bis(phenylmethyl)-,(3S,6S)] | have inhibitory activity on serotonin transporter binding | 8.15 µM |  |  | reduction of escape latency compared to control group (OSS-Saline) (C57BL/6 mice; 0.02 mg/kg oral, at 10 days of MWM): around 20%; time required to reach the escape platform versus fluvoxamine maleate group (C57BL/6 mice; 20 mg/kg oral, at 10 days of MWM): substantially the same; improving effect on learning motivation over control group (OSS-Vehicle) (C57BL/6 mice): significant improving effect on learning motivation; human dose predicted from the effective dose in mice (C57BL/6 mice; 1/10 of the mouse dose 0.02 mg/kg): 0.1 mg/human (50 kg); escape latency, dose dependence (C57BL/6 mice; OSS mice, oral, MWM for 10 days, FIG. 1): dose-dependent reduction in the escape latency; dose at which the effect is exerted (C57BL/6 mice; mice, time to reach the escape platform at 7 days of MWM, FIG. 3): ≥ 0.02 mg/kg; maximum no-effect dose (rats): ≥ 2 g/kg/day; IC50 ([1]; read-out: concentration (IC50) required for 50% inhibition of serotonin transporter binding): 8.1 µM; mutagenicity [3]: no mutagenicity; toxicity in single-dose (acute) toxicity study (mice): no toxicity
6 | O=C1N[C@@H](Cc2c[nH]cn2)C(=O)N2CCC[C@@H]12 [Compound B, pyrrolo[1,2-a]pyrazine-1,4-dione,hexahydro-3-(1H-imidazol-4-ylmethyl)-,(3S,8aS)] | have inhibitory activity on serotonin transporter binding | 2480 µM |  |  | 
7 | CC(C)[C@@H]1NC(=O)[C@@H]2CCCN2C1=O [Compound F, pyrrolo[1,2-a]pyrazine-1,4-dione,hexahydro-3-(1-methylethyl)-,(3S,8aS)] |  |  | have inhibitory activity on norepinephrine transporter binding | 10700 µM | 
